Laboratory results published in patent US12139729B2, “Neurodegenerative disorders” (priority 2013, dated 2024).
Like-named read-outs stand apart in the source and are kept apart here. Residues, ends and D or L forms follow the SMILES beside them. No end group written: not given here.

Tests used:
α7 nicotinic receptor = target: T1, α7 nicotinic receptor (Rattus norvegicus, UniProt Q05941); experiment: Acetylcholine-induced calcium influx (Fluo-8) in PC12 cells; format: cell-based
T1 construct: [3H]; host or cells: wild-type PC12 cells
Protocol: PC12 cells are plated in 200 μl of complete growth medium the day before the experiment in 96 well plates. On the day of the experiment, the Fluo-8 solution (Abcam) is prepared (as provider protocol). Subsequently, 100 μl of growth medium is removed and 100 μl of Fluo-8 solution is added. Treatments with T30 and NBP-14 are added and incubated for 30 minutes in the incubator and 30 minutes room temperature.
After 1 hour, the plate is placed in the fluorescence plate reader (Fluostar). Before reading the fluorescence, acetylcholine (ACh) 100 μM is prepared and placed in the Fluostar injector. For each well, the reading will be formed by a basal fluorescence followed by acetylcholine injection that will induce an increase of calcium via nicotinic receptors. The effects of T30 and NBP-14 are then evaluated.

Aβ42 = experiment: ELISA detection of Aβ42 in cell culture media; format: cell-based; settings: 1 hour
Protocol: After 1 hour of treatment, the culture media was collected and diluted to 1:100, using culture media as diluent. Four repeats of each diluted sample were then placed in the plate provided by the ELISA detection kit, from AnaSpec (Fremont, CA, USA). The detection was then carried out following the manufacturer's protocol. Briefly, the sample was incubated for 4 h in presence of 50 μl of detection antibody. The plate was then washed seven times with the washing solution, the samples were then incubated with the 3,3′,5,5′-Tetramethylbenzidine (TMB) provided with the kit for 15 min. after the sample revelation the reaction was stopped with the stop solution and the optical density was read at 450 nm.
Accordingly, using immunodetection, the inventors have determined (i) APP levels and (ii) release of amyloid following administration of T30 (5 uM) and NBP14 (0.5 μM).

[1] = tested on: cortical networks in rat brain slices; experiment: Voltage-sensitive dye imaging (VSDI) of thalamocortical brain slices; format: cell-based, rat (Wistar); settings: for T30-induced increase of rise-phase slope (velocity of propagation): n=3
Excerpt: Using this technique the inventors can obtain comprehensive sets of data on neuronal population activity such as (a) the intensity of the response in any given area, from which (b) the spread of elicited neuronal assemblies can be measured, and from this parameter (c) the velocity of propagation of the activity wave-front from the point of initiation (d) measured as the slope of the spread. Each of these parameters have been measured independently for two experiments carried out so far: i) an investigation of the effects induced by increasing concentrations (0.5, 0.75, 1 & 5 μM) of T30 on cortical population activity and responsiveness, and 2) assessing the antagonistic effects of NBP-14 on a single, relatively high (1 uM), T30 concentration. • Technique used: voltage-sensitive dye imaging (Di-4-ANEPPS) of thalamocortical (TC) p14 rat (Wistar) brain slices. • Stimulation paradigm: 40 Hz (consistent with thalamo-cortical recurrent stimulation) paired pulse stimulation. • Perfusion paradigm: epochs carried out in two phases—for every drug perfusion (say: control, 0.1 uM T30 etc.), the new perfusion was applied and left to perfuse for 15 minutes before starting the recording period (15 minutes also), such that the drug had time to reach its actual concentration and induce its concentration-dependent effects once recording. Meaning one perfusion epoch lasted 30 minutes, with the recording only taking in account the last 15 minutes of its respective perfusion epoch. Detailed Methods Brain Slice Preparation
Male Wistar rats (14-17 day old; 15 individual animals in total) were anaesthetised using isoflurane: 10 mL 100% w/w isoflurane was applied to the cotton bed at the bottom of an anaesthesia chamber (glass box 20×15×15 cm) where rats were then placed for ˜45 seconds until onset of anaesthesia. The hind paw of each anaesthetised rat was pinched to check for appropriate depth of anaesthesia. Once anaesthesia was confirmed, rats were quickly decapitated before immersing the brain in oxygenated ice-cold artificial cerebrospinal fluid (‘slicing’ aCSF in mmol: 120 NaCl, 5 KCl, 20 NaHCO3, 2.4 CaCl2), 2 MgSO4, 1.2 KH2PO4, 10 glucose, 6.7 HEPES salt and 3.3 HEPES acid; pH: 7.1) for 7-8 minutes, the time taken to cut the brain into slices. Para-saggital sections (400 μm thick) were cut from a block of brain containing both Thalamus (VPN) and primary somato-sensory cortex (barrel field) using a Vibratome (Leica VT1000S) and transferred to a bubbler pot containing aCSF at room temperature (‘recording’ aCSF in mmol: 124 NaCl, 3.7 KCl, 26 NaHCO3, 2 CaCl2, 1.3 MgSO4, 1.3 KH2PO4 and 10 glucose; […]), which was identical to that which was used during electrophysiological recordings and VSDI. Slices were left in oxygenated (95% O2-5% CO2) ‘recording’ aCSF to recuperate for at least 1 hour before VSD staining.
Slices were placed in a dark, high humidity chamber filled with aCSF bubbling with 95% O2-5% CO2. The dye solution (4% 0.2 mM styryl dye pyridinium 4-[2-[6-(dibutylamino)-2-naphthalenyl]-ethenyl]-1-(3-sulfopropyl)hydroxide (Di-4-ANEPPS, Invitrogen, Paisley, UK) (Tominaga et al., 2000) in aCSF 46%, fetal bovine serum 46%, DMSO 3.5% and cremophore EL 0.4%) was then applied to the slices as previously described (Badin et al., 2013). When starting VSD recordings, slices were placed in the recording bath on a small piece of filter paper to keep slice alive and was weighed down appropriately using a home-made plastic grid placed atop the slice. Because of the fluorescent VSD, all of the handling of slices during and after staining with Di-4-ANEPPS was carried out in almost complete darkness in order to keep the detrimental effects of photo-toxicity and bleaching to a minimum. VPN (where stimulating electrodes were placed) was identified with respect to distance from the tip of the hippocampus and to the side of the internal capsule. […]

[2] = Cell Counting Kit-8 (CCK-8) cell viability assay; format: cell-based
Excerpt: A Cell Counting Kit-8 (CCK-8) was used as an improvement of the SRB technique used before. By utilizing the highly water-soluble tetrazolium salt WST-8, CCK-8 produces a water-soluble formazan dye upon reduction in the presence of an electron carrier. WST-8 is reduced by dehydrogenases in cells to give a yellow colored product (formazan), which is soluble in the tissue culture medium. The amount of the formazan dye generated by the activity of dehydrogenases in cells is directly proportional to the number of living cells. PC12 cells are plated in 200 μl of complete growth medium the day before the experiment in 96 well plates. Treatments with T30 and NBP-14 are added and incubated for 1 hour in the incubator.
Subsequently, 100 μl of growth medium is removed and 10 μl of CCK-8 (Cell Counting Kit-8) solution is added. The plate is incubated for 2 hours in the incubator and then placed in the absorbance plate reader. The absorbance must be measured at 450 nm.

T1 sequence (Q05941 23-502): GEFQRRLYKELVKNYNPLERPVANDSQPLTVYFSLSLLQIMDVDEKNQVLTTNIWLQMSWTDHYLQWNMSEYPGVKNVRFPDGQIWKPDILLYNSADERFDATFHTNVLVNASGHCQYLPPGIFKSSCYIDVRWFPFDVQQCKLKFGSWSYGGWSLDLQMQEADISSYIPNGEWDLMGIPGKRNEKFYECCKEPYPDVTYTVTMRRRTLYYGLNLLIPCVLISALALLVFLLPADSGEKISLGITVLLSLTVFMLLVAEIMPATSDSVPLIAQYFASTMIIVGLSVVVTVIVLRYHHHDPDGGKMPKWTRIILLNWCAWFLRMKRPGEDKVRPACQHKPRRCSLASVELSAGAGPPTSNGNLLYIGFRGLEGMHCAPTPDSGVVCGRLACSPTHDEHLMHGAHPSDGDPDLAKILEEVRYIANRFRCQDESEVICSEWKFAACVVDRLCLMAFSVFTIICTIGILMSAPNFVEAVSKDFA

## CSCC[C@@H]1NC(=O)[C@H](Cc2ccc(O)cc2)NC(=O)[C@H](CO)NC(=O)[C@H](CO)NC(=O)[C@H](Cc2c[nH]c3ccccc23)NC(=O)[C@H](CCCNC(=N)N)NC(=O)[C@H](Cc2c[nH]cn2)NC(=O)[C@H](Cc2ccccc2)NC(=O)[C@H](CCC(=O)O)NC(=O)[C@H](C)NC(=O)[C@H](CCCCN)NC(=O)[C@H](Cc2c[nH]c3ccccc23)NC(=O)[C@H](Cc2c[nH]cn2)NC(=O)[C@H](C(C)C)NC1=O [Cyclic T14] (cyclo(AEFHRWSSYMVHWK))
α7 nicotinic receptor; T30 5 uM + NBP-14 5 nM (1st of 10 values)
  calcium influx, T30 + NBP-14: 134.2497±6.85%
α7 nicotinic receptor; T30 5 uM + NBP-14 7 nM (2nd of 10 values)
  calcium influx, T30 + NBP-14: 120.8612±8.65%
α7 nicotinic receptor; T30 5 uM + NBP-14 9 nM (3rd of 10 values)
  calcium influx, T30 + NBP-14: 113.9162±8.82%
α7 nicotinic receptor; T30 5 uM + NBP-14 10 nM (4th of 10 values)
  calcium influx, T30 + NBP-14: 140.776±12.16%
α7 nicotinic receptor; T30 5 uM + NBP-14 20 nM (5th of 10 values)
  calcium influx, T30 + NBP-14: 115.83±7.67%
α7 nicotinic receptor; T30 5 uM + NBP-14 50 nM (6th of 10 values)
  calcium influx, T30 + NBP-14: 110.3213±13.21%
α7 nicotinic receptor; T30 5 uM + NBP-14 70 nM (7th of 10 values)
  calcium influx, T30 + NBP-14: 125.9596±0.1%
α7 nicotinic receptor; T30 5 uM + NBP-14, 8th of 10 values, only 9 concentrations printed (.. 70, 1000, 5000 nM), concentration unclear
  calcium influx, T30 + NBP-14: 99.85±0.32%
α7 nicotinic receptor; T30 5 uM + NBP-14, 9th of 10 values, concentration unclear
  calcium influx, T30 + NBP-14: 115.1942±9.84%
α7 nicotinic receptor; T30 5 uM + NBP-14, 10th of 10 values, concentration unclear
  calcium influx, T30 + NBP-14: 79.99±14.04%
α7 nicotinic receptor; T30 5 uM, FIG. 13
  concentration range protective against T30-induced calcium influx: low nanomolar range
Aβ42; T30 (5 uM) + NBP14 (0.5 μM)
  release of Aβ42 in presence of T30 and NBP-14: close to control
[1]
  modulatory effects of NBP-14 on its own: inert
[1]; 300 nM NBP-14, T30 1000 nM
  modulatory effects of T30 on neuronal populations under NBP-14: reduced back to control levels
[1]; T30 1 μM + 100 nM NBP-14 perfusion
  T30-induced increase of rise-phase slope (velocity of propagation): slowed down
[1]; T30 1 μM + 300 nM NBP-14 perfusion
  T30-induced increase of rise-phase slope (velocity of propagation): reversed back to baseline levels
[2]; T30 5 uM + NBP-14 5 nM (1st of 10 values), read-out: cell viability, T30 + NBP-14
  viability: 76.2 ± 7.51%
[2]; T30 5 uM + NBP-14 7 nM (2nd of 10 values), read-out: cell viability, T30 + NBP-14
  viability: 67 ± 4.35%
[2]; T30 5 uM + NBP-14 9 nM (3rd of 10 values), read-out: cell viability, T30 + NBP-14
  viability: 76 ± 4.22%
[2]; T30 5 uM + NBP-14 10 nM (4th of 10 values), read-out: cell viability, T30 + NBP-14
  viability: 71.4 ± 1.64%
[2]; T30 5 uM + NBP-14 20 nM (5th of 10 values), read-out: cell viability, T30 + NBP-14
  viability: 79 ± 10.2%
[2]; T30 5 uM + NBP-14 50 nM (6th of 10 values), read-out: cell viability, T30 + NBP-14
  viability: 75.2 ± 3.9%
[2]; T30 5 uM + NBP-14 70 nM (7th of 10 values), read-out: cell viability, T30 + NBP-14
  viability: 62.4 ± 3.01%
[2]; T30 5 uM + NBP-14, 8th of 10 values, concentration unclear, read-out: cell viability, T30 + NBP-14
  viability: 78.1 ± 2.16%
[2]; T30 5 uM + NBP-14, 9th of 10 values, concentration unclear, read-out: cell viability, T30 + NBP-14
  viability: 117 ± 3.62%
[2]; T30 5 uM + NBP-14, 10th of 10 values, concentration unclear, read-out: cell viability, T30 + NBP-14
  viability: 108 ± 5.1%

## KAEFHRWSSYMVHWKNQFDHYSKQDRCSDL [T30, reference compound]
α7 nicotinic receptor; PC12 cells
  increase of calcium influx: about 70%
α7 nicotinic receptor; T30 5 uM alone, ACh 100 μM, N=3
  calcium influx (acetylcholine control = 100%): 171.05%±6.21
Aβ42; T30 (5 uM)
  release of Aβ42 compared to control: approximately 175%
[1]; 5 μM T30
  maximum decrease in propagation speed (slope of the rise phase): 3.5 fold
[1]; T30 0.5, 0.75, 1 μM, affected only at 5 uM
  spread of cortical assemblies: not significantly affected
[1]; increasing T30 concentration (0.5-5 μM)
  intensity of fluorescence given off by active pixels: diminishes
[2]; T30 5 uM alone, 1 hour, N=3, read-out: cell viability
  viability: 74.3%
[2]; T30 5 uM, read-out: decrease of cell viability
  cytotoxicity: 25%
